Laboratory results taken from US6896895B2, “Carotenoid esters, carotenoid-enriched feeds, and methods of pigmenting foods and foodstuffs” (DSM IP Assets B.V., priority 2000, dated 2005).

Test system: not listed separately
Experiment: Carotenoid ester content in plasma, back skin and abdominal fat of broilers (HPLC)
Assay type: in vivo, broiler chickens (Ross 308, Ross 508)
Conditions: average over doses, Table 4
Description: (§1) Pigmentation efficacy was assessed in egg yolk, in the back skin of the broiler carcass, and in broiler shanks by reflectance colorimetry accompanied by visual scoring (Roche Colour Fan). The deposition of the ethyl-β-apo-8′-carotenoate (control) and the other carotenoid esters was determined in egg yolk and in the broiler back skin. In addition, the carotenoid levels in plasma and abdominal fat were measured.
(§2) The trials were carried out using chickens of the type Ross 308 (trials MC-24/98 and MC-02/99) and Ross 508 (trials MC-11/99, MC-16/99, MC-24/99, and MC-03/00) (Couvir de la Bohardière, F-49290 Saint Laurent de la Plaine). One-day old broiler chickens, separated by sex, were divided by weight into experimental groups of ten animals each and reared in floor pens littered with wood shavings. The chickens were fed a low carotenoid basal grower diet until day 22 (trials MC-24/98, MC-02/99, and MC-11/99) or until day 15 (trials MC-16/99, MC-24/99, and MC-03/00). The low carotenoid basal grower diet contained less than 2 mg total xanthophylls per kg of feed, and its composition is described in Table 2. For the subsequent experimental period of three weeks, the birds received the basal diet supplemented with an appropriate pigment. The feed was given in the form of crumbled pellets during the first week and as pellets thereafter. The animals had unrestricted access to feed and water. A given treatment involved one group of male and one group of female chickens. Each group of chickens was weighed at day 22 (trials MC-24/98, MC-02/99, and MC-11/99) or day 15 (trials MC-16/99, MC-24/99, and MC-03/00) and on day 43. On day 42, five chickens per group were selected at random, labelled, and blood samples were taken from the jugular vein. At the end of the experiment (day 44) the animals were slaughtered in a commercial slaughterhouse (Freyburger, Dannemarie, France). The following day, the color of the skin (hind back of carcasses) and the shanks of the labelled chicken were measured by reflectance colorimetry (Minolta CR 200 apparatus, CIE-Lab system). Samples of the dorsal skin and abdominal fat were obtained, pooled for each experimental group, and the carotenoid concentration was determined. The concentration of carotenoids in feed, plasma, skin, and abdominal fat was determined by standard procedures as described after Tables 1 and 2.
The content of the various carotenoid esters in feed was determined according to the method of Schierle, et al. (J. Schierle , N. Faccin, V. Riegert, Analytical Methods for Vitamins and Carotenoids in Feed, Revised supplement: Determination of Stabilized Apocarotenoic Ester and Canthaxanthin in Premixes and Feeds, Roche publication no. 50771 (1995), publicly available from. F. Hoffmann-La Roche Ltd., CH-4070 Basel). This method was modified in that the mobile phase of the normal-phase HPLC contained 0.5% instead of 7% acetone in n-hexane, improving the separation of the E/Z-isomers of the carotenoid esters. Peaks were related to all-E- and Z-isomers of the various carotenoid esters by chromatography of heat-isomerized solutions of the respective reference substances in n-hexane. The HPLC system was calibrated with the all-E-isomer of ethyl β-apo-8′-carotenoate. The response factor of the various derivatives was deduced from that of ethyl β-apo-8′-carotenoate taking into account the respective molecular weight. The content of the Z-isomer fractions was calculated based on the response of the all-E-isomer and using a correction factor of 1.4 to account for the lower specific absorbance of the Z-isomers.
(§3) The HPLC-system for in-feed analysis was also used to quantify the carotenoid esters in egg yolk, broiler tissues, and broiler plasma, but the extraction procedure was different for the various matrices.
For plasma extraction, 1.0 g of the well-mixed plasma sample was introduced into a 10 ml test tube with 1.0 ml of demineralized water and 4.0 ml of ethanol, and the contents mixed on a Vortex shaker. […]

Analytical Content as Equivalent of Ethyl β-apo-8′-carotenoate in % of control Plasma	SMILES	Analytical Content as Equivalent of Ethyl β-apo-8′-carotenoate in % of control Fat	Analytical Content as Equivalent of Ethyl β-apo-8′-carotenoate in % of control Skin
58%	CC(C=CC=C(C)C=CC1=C(C)CCCC1(C)C)=CC=CC=C(C)C=CC=C(C)C(=O)OCC(C)C [(4), isobutyl beta-apo-8′-carotenoate]		
88%	COC(=O)C(C)=CC=CC(C)=CC=CC=C(C)C=CC=C(C)C=CC1=C(C)CCCC1(C)C [(1), methyl beta-apo-8′-carotenoate]	85%	87%

SMILES	Analytical Content as Equivalent of Ethyl β-apo-8′-carotenoate in % of control Plasma	Analytical Content as Equivalent of Ethyl β-apo-8′-carotenoate in % of control Fat	Analytical Content as Equivalent of Ethyl β-apo-8′-carotenoate in % of control Skin
CCCC(C)COC(=O)C(C)=CC=CC(C)=CC=CC=C(C)C=CC=C(C)C=CC1=C(C)CCCC1(C)C (stereo not drawn) [(11), 2-methyl-1-pentyl beta-apo-8′-carotenoate]	59%	50%	69%

Test system: egg yolk
Experiment: Egg yolk colour: reflectance colorimetry and Roche Yolk Colour Fan
Assay type: in vivo, laying hens (ISA Brown)
Conditions: egg yolk, laying hens; trial H-18/99; 5.0 mg/kg feed; Table 8
Description: as §1
The trials were carried out following the standard experimental design used for egg yolk pigmentation trials at the Roche Research Center for Animal Nutrition (CRNA, F-68305 Village-Neuf, France). Each year in February the pigmentation trials are started with a new flock of layers. At the beginning of the trials the age of the laying hens (192 birds, type ‘ISA Brown’) were as follows:
(§4) Preceding the trials the hens were fed a low carotenoid basal diet (produced at the CRNA) without carotenoid supplementation for at least 28 days. During the trials, the control group received the low carotenoid basal diet containing less than 2 mg total xanthophylls per kg of feed. The other animals were fed this diet supplemented with the appropriate pigments for three weeks. The diet was given to the animals ad libitum in mash form. The hens had free access to tap water. Beside the unsupplemented control treatment, treatments were carried out involving the provision of supplemented feed, the results of these treatments being presented in Tables 7-9.
Egg yolk color was assessed as described by Steinberg, et al. (Arch. Geflügelk 64 (4), 180-187 (2000)). The yolks were manually separated from the whites of the eggs. The isolated yolks of three to six eggs were combined, weighed, and stirred with a glass rod until the color appeared homogeneous. The color hue was visually scored using the Roche Yolk Colour Fan (RYCF, version 1993). An aliquot of the pooled egg yolks was transferred into a glass cuvette yielding an approximately 2 cm thick layer. The color was then measured by means of a Dr. Lange Xeno Color LS 100 spectro-colorimeter with diffuse D65-illumination and a 8° viewing angle.
(§5) The color data were expressed as CIE L*a*b*-values including h*(hue) and C* (chroma). The values given in the tables per treatment and trial represent averages of color measurements of four egg yolk pools, ten broiler back skins, or ten broiler shanks (5 males and 5 females).

SMILES	Color Fan Value % of Controls
CC(C=CC=C(C)C=CC1=C(C)CCCC1(C)C)=CC=CC=C(C)C=CC=C(C)C(=O)OCC(C)C [(4), isobutyl beta-apo-8′-carotenoate]	116%
COC(=O)C(C)=CC=CC(C)=CC=CC=C(C)C=CC=C(C)C=CC1=C(C)CCCC1(C)C [(1), methyl beta-apo-8′-carotenoate]	130%

Same assay, conditions: egg yolk, laying hens; trial H-18/99; 5.0 mg/kg feed; Table 10

SMILES	Chroma C*ab % of Controls	Color Fan Value % of Controls	Color Hue h*ab % of Controls
CC(C=CC=C(C)C=CC1=C(C)CCCC1(C)C)=CC=CC=C(C)C=CC=C(C)C(=O)OCC(C)C [(4), isobutyl beta-apo-8′-carotenoate]	104%	116%	101%
COC(=O)C(C)=CC=CC(C)=CC=CC=C(C)C=CC=C(C)C=CC1=C(C)CCCC1(C)C [(1), methyl beta-apo-8′-carotenoate]	104%	130%	99%

Same assay, conditions: egg yolk, laying hens; trial H-25/99; 5.0 mg/kg feed; Table 8

SMILES	Color Fan Value % of Controls
CCCC(C)COC(=O)C(C)=CC=CC(C)=CC=CC=C(C)C=CC=C(C)C=CC1=C(C)CCCC1(C)C (stereo not drawn) [(11), 2-methyl-1-pentyl beta-apo-8′-carotenoate]	116%

Same assay, conditions: egg yolk, laying hens; trial H-25/99; 5.0 mg/kg feed; Table 10

SMILES	Chroma C*ab % of Controls	Color Fan Value % of Controls	Color Hue h*ab % of Controls
CCCC(C)COC(=O)C(C)=CC=CC(C)=CC=CC=C(C)C=CC=C(C)C=CC1=C(C)CCCC1(C)C (stereo not drawn) [(11), 2-methyl-1-pentyl beta-apo-8′-carotenoate]	101%	116%	103%

Test system: skin and shanks of broilers
Experiment: Reflectance colorimetry and visual classification of skin and shanks of broilers
Assay type: in vivo, broiler chickens (Ross 308, Ross 508)
Design: key to Shanks Visual Classification / Skin Visual Classification: −; (+); +; ++ = good color; o = orange
Conditions: dry carcasses, average over doses, Table 6
Description: as §1, §2
The color of broiler skin and shanks was measured using a tristimulus Minolta CR-300 Chromameter with diffuse D65-illumination and a 0° viewing angle. The color of the skin was read at three different points on the back of the dry broiler carcasses and average values of the triple measurements were recorded. The color of shanks was measured using single measurements at the ball between the toes.
as §5

SMILES	Shanks Chroma C*ab % of Controls	Shanks Color Hue h*ab % of Controls	Shanks Visual Classification	Skin Chroma C*ab % of Controls	Skin Color Hue h*ab % of Controls	Skin Visual Classification
CC(C=CC=C(C)C=CC1=C(C)CCCC1(C)C)=CC=CC=C(C)C=CC=C(C)C(=O)OCC(C)C [(4), isobutyl beta-apo-8′-carotenoate]	72%	105%	(+)	84%	98%	(+)
COC(=O)C(C)=CC=CC(C)=CC=CC=C(C)C=CC=C(C)C=CC1=C(C)CCCC1(C)C [(1), methyl beta-apo-8′-carotenoate]	97%	101%	(+)	97%	100%	(+)
CCCC(C)COC(=O)C(C)=CC=CC(C)=CC=CC=C(C)C=CC=C(C)C=CC1=C(C)CCCC1(C)C (stereo not drawn) [(11), 2-methyl-1-pentyl beta-apo-8′-carotenoate]	92%	101%	(+)	87%	95%	+

Test system: not listed separately
Experiment: Carotenoid ester content and deposition rate in egg yolk of laying hens (HPLC)
Assay type: in vivo, laying hens (ISA Brown)
Conditions: egg yolk, trial H-18/99, 5.0 mg/kg feed, Table 8
Description: as §1
Each year in February the pigmentation trials are started with a new flock of layers.
as §4, with “water.” for “water. Beside the unsupplemented control treatment, treatments were carried out involving the provision of supplemented feed, the results of these treatments being presented in Tables 7-9.”
Peaks were related to all-E- and Z-isomers of the various carotenoid esters by chromatography of heat-isomerized solutions of the respective reference substances in n-hexane. The HPLC system was calibrated with the all-E-isomer of ethyl β-apo-8′-carotenoate. The response factor of the various derivatives was deduced from that of ethyl β-apo-8′-carotenoate taking into account the respective molecular weight. The content of the Z-isomer fractions was calculated based on the response of the all-E-isomer and using a correction factor of 1.4 to account for the lower specific absorbance of the Z-isomers.
as §3
For the extraction of egg yolk, 10 g of pooled and homogenised yolk were mixed with 10 ml of demineralized water using a dispersion instrument (Polytron). 1.0 g of diluted egg yolk was introduced into a 10 ml test tube with 1.0 ml of demineralized water and 2.0 ml of ethanol, and the contents were mixed on a Vortex shaker. After addition of 4.0 ml of n-hexane, the mixture was further treated as described for plasma.

Deposition Rate Target Values % of Controls	Ethyl β-apo-8′-carotenoate Equivalents % of Controls	SMILES
83%	74%	CC(C=CC=C(C)C=CC1=C(C)CCCC1(C)C)=CC=CC=C(C)C=CC=C(C)C(=O)OCC(C)C [(4), isobutyl beta-apo-8′-carotenoate]
99%	95%	COC(=O)C(C)=CC=CC(C)=CC=CC=C(C)C=CC=C(C)C=CC1=C(C)CCCC1(C)C [(1), methyl beta-apo-8′-carotenoate]

Same assay, conditions: egg yolk, trial H-18/99, 5.0 mg/kg feed, Table 10

Deposition Rate % of Controls	SMILES
83%	CC(C=CC=C(C)C=CC1=C(C)CCCC1(C)C)=CC=CC=C(C)C=CC=C(C)C(=O)OCC(C)C [(4), isobutyl beta-apo-8′-carotenoate]
99%	COC(=O)C(C)=CC=CC(C)=CC=CC=C(C)C=CC=C(C)C=CC1=C(C)CCCC1(C)C [(1), methyl beta-apo-8′-carotenoate]

Same assay, conditions: egg yolk, trial H-25/99, 5.0 mg/kg feed, Table 8

SMILES	Deposition Rate Target Values % of Controls	Ethyl β-apo-8′-carotenoate Equivalents % of Controls
CCCC(C)COC(=O)C(C)=CC=CC(C)=CC=CC=C(C)C=CC=C(C)C=CC1=C(C)CCCC1(C)C (stereo not drawn) [(11), 2-methyl-1-pentyl beta-apo-8′-carotenoate]	112%	96%

Same assay, conditions: egg yolk, trial H-25/99, 5.0 mg/kg feed, Table 10

SMILES	Deposition Rate % of Controls
CCCC(C)COC(=O)C(C)=CC=CC(C)=CC=CC=C(C)C=CC=C(C)C=CC1=C(C)CCCC1(C)C (stereo not drawn) [(11), 2-methyl-1-pentyl beta-apo-8′-carotenoate]	112%
